# Experimental data from patent US20050239173A1, “Production of amino sugars” (Cargill, Inc., priority 2003, published 2005).
# Key:
# [1] = biological target: glucosamine-6-phosphate synthase (Escherichia coli, UniProt P17169); conditions: White, Biochem. J. 106:847-858 (1968); cited from earlier work
# [2] = biological target: T1, E. coli N-acetylglucosamine-6-phosphate deacetylase (Escherichia coli, UniProt P0AF18); assay: Enzymatic deacetylation of N-acetylglucosamine followed over time (Elson and Morgan assay); assay type: biochemical; conditions: 37° C.; for [Glucosamine]: 0.1 mL of 500 mM N-acetylglucosamine in 0.2 mL, Tris-HCl pH 7.8, nagA cell extract
# T1 construct: The Xa protease recognition site (IEGR) sits directly in front of the start codon of the gene of interest; His-tag (N); S-tag (N); Factor Xa recognition site (IEGR) (N); made in house; host or cells: E. coli BL21(DE3), pET30(Xa/LIC)
# Description: Fermentation broth and cell extract samples were routinely assayed using the method of Elson and Morgan (Biochem. J. 27:1824-1828) described by Zalkin (1985, Method Enzymol. 113:278-281) and Roden et al. (1997, Anal. Biochem. 254:240-248). Typically, to 0.08 mL of fermentation broth or 0.015 to 0.02 mL of cell extract was added 0.01 mL of saturated sodium bicarbonate solution and 0.01 mL of cold, freshly prepared 5% aqueous acetic anhydride. After a 3 minute incubation at room temperature, the mixture was incubated at 100° C. for 3 min to drive off the excess acetic anhydride. After cooling to room temperature, 0.12 mL of potassium borate, pH 9.2, was added and the mixture was incubated at 100° C. for 3 min. After cooling to room temperature, 1.0 mL of Ehrlich's reagent (1 gram p-dimethylaminobenzaldehyde in 100 mL glacial acetic acid containing 0.125 M HCl) was added to each tube. The tubes were incubated at 37° C. for 20 min and the absorbance at 585 nm was measured. All samples were assayed in duplicate. A standard curve was generated using 0.005 to 0.1 μmole glucosamine for quantification of product formation. Samples were assayed with and without the acetic anhydride addition to determine the amounts of glucosamine and N-acetylglucosamine present in the sample. The amount of N-acetylglucosamine was calculated from the results of assays without the acetic anhydride addition. The amount of glucosamine was calculated as the difference between the results with and without the acetic anhydride addition.
# The enzymatic deacetylation of N-acetylglucosamine was followed over time. In a total of 0.2 mL was mixed 0.1 mL of 500 mM N-acetylglucosamine, 0.02 mL of 0.5 M Tris-HCl, pH 7.8 and nagA protein (cell extract fraction; 3.5 mg/mL protein). The mixtures were incubated from 0 to 120 min at 37° C. To distinguish between glucosamine and N-acetylglucosamine using the Elson and Morgan method described in the Materials and Methods section, the product formation in the samples was measured with and without the acetylation step. The amount of glucosamine was calculated as the difference between the assay results with and without the acetylation step. After 120 min approximately 74% of the substrate N-acetylglusosamine was converted to glucosamine.
# [3] = test system: S. cerevisiae strain BY4742; assay: Growth of S. cerevisiae strains in the presence of glucosamine (OD600); assay type: cell-based, Saccharomyces cerevisiae; conditions: BY4742 GFA1pESCHis
# Description: (§1) S. cerevisiae strains BY4742 and BY4743 transformed with pESCHis carrying the GFA1 insert were grown in 5 mL SC-His medium containing 2% glucose overnight at 30° C. with shaking. An aliquot (0.5 mL) from each culture was transferred to 6 flasks containing 50 mL of SC-His medium containing 2% glucose. Glucosamine at the following concentrations was added to the flasks: 0, 2, 6, 10, 15, 20 mg/mL for each strain. The incubation was continued for 28 h at 30° C. with shaking. At 3, 16 and 28 h samples were withdrawn and the optical density at 600 nm was measured.
# [4] = test system: S. cerevisiae strain BY4743; assay: as above; assay type: cell-based, Saccharomyces cerevisiae; conditions: BY4743 GFA1pESCHis
# Description: as §1
# [5] = test system: S. cerevisiae strain BY4742; assay: as above; assay type: cell-based, Saccharomyces cerevisiae; conditions: parental strains of Examples 1-3 (BY4742 and BY4743); concentrations of glucosamine as high as 20 g/L
# osteoarthritis = conditions: patients; cited from earlier work
# Sequence of glucosamine-6-phosphate synthase (P17169 whole entry): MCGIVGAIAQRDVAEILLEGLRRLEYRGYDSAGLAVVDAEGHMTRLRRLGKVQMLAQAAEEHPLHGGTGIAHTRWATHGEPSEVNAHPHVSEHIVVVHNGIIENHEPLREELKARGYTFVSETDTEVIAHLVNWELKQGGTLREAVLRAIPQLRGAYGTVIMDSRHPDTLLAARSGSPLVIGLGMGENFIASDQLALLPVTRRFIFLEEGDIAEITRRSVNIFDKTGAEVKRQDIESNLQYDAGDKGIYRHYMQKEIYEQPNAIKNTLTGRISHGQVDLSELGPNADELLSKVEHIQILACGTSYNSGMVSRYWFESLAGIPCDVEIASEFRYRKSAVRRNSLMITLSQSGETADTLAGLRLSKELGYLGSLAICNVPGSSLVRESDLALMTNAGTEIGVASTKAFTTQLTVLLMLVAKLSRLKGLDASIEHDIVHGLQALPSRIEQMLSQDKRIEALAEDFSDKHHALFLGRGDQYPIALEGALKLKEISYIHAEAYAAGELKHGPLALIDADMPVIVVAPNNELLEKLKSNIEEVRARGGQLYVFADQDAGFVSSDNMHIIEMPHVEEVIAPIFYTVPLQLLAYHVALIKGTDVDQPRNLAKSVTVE
compound,measurement,setting,value
N[C@H]1C(O)O[C@H](COP(=O)(O)O)[C@@H](O)[C@@H]1O (stereo partly shown) [glucosamine-6-phosphate],inhibition of glucosamine-6-phosphate synthase activity,[1],inhibited
"CC(=O)N[C@@H](C=O)[C@@H](O)[C@H](O)[C@H](O)CO [N-acetylglucosamine, 2-acetamino-2-deoxy-D-glucose]",[Glucosamine],[2]; 0 min,0.0 mM
same,[Glucosamine],[2]; 15 min,126.3 mM
same,[Glucosamine],[2]; 30 min,136.3 mM
same,[Glucosamine],[2]; 60 min,161.3 mM
same,[Glucosamine],[2]; 120 min,185.0 mM
same,substrate converted to glucosamine,"[2]; after 120 min, nagA cell extract",approximately 74%
"N[C@H]1C(O)O[C@H](CO)[C@@H](O)[C@@H]1O (stereo partly shown) [glucosamine, 2-amino-2-deoxyglucopyranose]",OD600,"[3]; glucosamine 2.0 mg/mL, 3 h",0.71
same,OD600,"[3]; glucosamine 2.0 mg/mL, 16 h",3.06
same,OD600,"[3]; glucosamine 2.0 mg/mL, 28 h",3.32
same,OD600,"[3]; glucosamine 6.0 mg/mL, 3 h",0.66
same,OD600,"[3]; glucosamine 6.0 mg/mL, 16 h",2.98
same,OD600,"[3]; glucosamine 6.0 mg/mL, 28 h",3.27
same,OD600,"[3]; glucosamine 10.0 mg/mL, 3 h",0.64
same,OD600,"[3]; glucosamine 10.0 mg/mL, 16 h",2.87
same,OD600,"[3]; glucosamine 10.0 mg/mL, 28 h",3.06
same,OD600,"[3]; glucosamine 15.0 mg/mL, 3 h",0.60
same,OD600,"[3]; glucosamine 15.0 mg/mL, 16 h",2.92
same,OD600,"[3]; glucosamine 15.0 mg/mL, 28 h",3.22
same,OD600,"[3]; glucosamine 20.0 mg/mL, 3 h",0.57
same,OD600,"[3]; glucosamine 20.0 mg/mL, 16 h",2.84
same,OD600,"[3]; glucosamine 20.0 mg/mL, 28 h",3.02
same,OD600,"[4]; glucosamine 2.0 mg/mL, 3 h",0.74
same,OD600,"[4]; glucosamine 2.0 mg/mL, 16 h",4.12
same,OD600,"[4]; glucosamine 2.0 mg/mL, 28 h",4.69
same,OD600,"[4]; glucosamine 6.0 mg/mL, 3 h",0.76
same,OD600,"[4]; glucosamine 6.0 mg/mL, 16 h",3.99
same,OD600,"[4]; glucosamine 6.0 mg/mL, 28 h",5.02
same,OD600,"[4]; glucosamine 10.0 mg/mL, 3 h",0.66
same,OD600,"[4]; glucosamine 10.0 mg/mL, 16 h",4.18
same,OD600,"[4]; glucosamine 10.0 mg/mL, 28 h",4.36
same,OD600,"[4]; glucosamine 15.0 mg/mL, 3 h",0.68
same,OD600,"[4]; glucosamine 15.0 mg/mL, 16 h",4.00
same,OD600,"[4]; glucosamine 15.0 mg/mL, 28 h",4.14
same,OD600,"[4]; glucosamine 20.0 mg/mL, 3 h",0.38
same,OD600,"[4]; glucosamine 20.0 mg/mL, 16 h",3.78
same,OD600,"[4]; glucosamine 20.0 mg/mL, 28 h",3.98
same,effect of glucosamine on the parental strains,[5],not affected
same,effect on joint structure,osteoarthritis,improve joint structure
same,effect on pain of osteoarthritis,osteoarthritis,reduce the pain of osteoarthritis in some patients
